{
  "source": "patent EP0430029A2",
  "about": "“Pyridin-2,4- and 2,5-dicarboxylic acid diamides, process for their preparation and their use” (HOECHST AKTIENGESELLSCHAFT, priority 1989, dated 1991)",
  "test_system": "durch CCl₄ induzierte Leberfibrose in Ratten",
  "experiment": "CCl₄-induced liver fibrosis in rats, 8-week treatment (liver hydroxyproline, serum procollagen III peptide, serum bilirubin)",
  "format": "in vivo",
  "details": "8 weeks",
  "text": "Zum Nachweis der effektiven Hemmung der Prolin- und Lysinhydroxylase durch die erfindungsgemäßen Verbindungen wurden die Hydroxyprolin-Konzentrationen in der Leber und die Prokollagen-III-Peptid-Konzentrationen im Serum von • a) unbehandelten Ratten (Kontrolle) • b) Ratten, denen Tetrachlorkohlenstoff verabreicht wurde (CCl₄-Kontrolle) • c) Ratten, denen zunächst CCl₄ und anschließend eine erfindungsgemäße Verbindung verabreicht wurde gemessen (diese Testmethode wird beschrieben von Rouiller, C., experimental toxic injury of the liver; in The Liver, C. Rouiller, Vol. 2, S. 335-476, New York, Academic Press, 1964).\nDie Wirkstärke der erfindungsgemäßen Verbindungen wurde als prozentuale Hemmung der Leber-Hydroxyprolin- und Prokollagen-III-Peptidsynthese nach oraler Gabe im Vergleich zu Kontrolltieren, denen nur Tetrachlorkohlenstoff verabreicht wurde (CCl₄-Kontrolle), bestimmt. Die Ergebnisse sind in Tabelle 1 aufgeführt. Tabelle 1",
  "data": [
    {"molecule": "CC(=O)NNC(=O)c1ccnc(C(=O)NNC(C)=O)c1", "note": "[Example 1, Pyridin-2,4-dicarbonsäuredi-(methylcarbonylhydrazid)]", "values": [
      {"measurement": "Bilirubin", "setting": "Bilirubin in Serum (total), rats given CCl₄ then compound, daily oral dose 50 mg/kg", "value": "3,0 µM"},
      {"measurement": "Hyp", "setting": "Hydroxyprolin Gehalt in der Leber, rats given CCl₄ then compound, daily oral dose 50 mg/kg", "value": "0,181 µg/ml"},
      {"measurement": "PIIIP", "setting": "Prokollagen III N-peptid im Serum, rats given CCl₄ then compound, daily oral dose 50 mg/kg", "value": 29, "unit": "ng/mL"},
      {"measurement": "Hyp Zunahme (absolut) gegen Kontrolle", "setting": "liver hydroxyproline, absolute increase versus untreated control, 50 mg/kg oral daily", "value": "0,125 µg/ml"},
      {"measurement": "Hyp prozentuale Abnahme gegen CCl₄-Behandlung", "setting": "liver hydroxyproline, 50 mg/kg oral daily", "value": 27, "unit": "%"},
      {"measurement": "Mittelwert: Gesamtgehalt an Bilirubin, PIIIP und Hyp, % Abweichung", "setting": "mean of the percent decreases of bilirubin, PIIIP and Hyp versus CCl₄ treatment, 50 mg/kg oral daily", "value": "(33 ± 13 %)"},
      {"measurement": "PIIIP Zunahme (absolut) gegen Kontrolle", "setting": "serum procollagen III N-peptide, absolute increase versus untreated control, 50 mg/kg oral daily", "value": 18, "unit": "ng/mL"},
      {"measurement": "PIIIP prozentuale Abnahme gegen CCl₄-Behandlung", "setting": "serum procollagen III N-peptide, 50 mg/kg oral daily", "value": 14, "unit": "%"},
      {"measurement": "Bilirubin Zunahme (absolut) gegen Kontrolle", "setting": "serum total bilirubin, absolute increase versus untreated control, 50 mg/kg oral daily", "value": "1,1 µM"},
      {"measurement": "Bilirubin prozentuale Abnahme gegen CCl₄-Behandlung", "setting": "serum total bilirubin, 50 mg/kg oral daily", "value": 58, "unit": "%"}
    ]}
  ]
}
